Our source for the remaining activity values is paper PMC8286840, “Identifying SARS-CoV-2 antiviral compounds by screening for small molecule inhibitors of Nsp3 papain-like protease” (Biochemical Journal, 2021).

Counter-ions that a name gives are not always drawn. Like-named read-outs stand apart in the source and are kept apart here.

In test [1] the target is T1, SARS-CoV-2 PLpro (nsp3 1564–1878) (Severe acute respiratory syndrome coronavirus 2, UniProt P0DTD1). The test is described as follows: biochemical. On the set-up: FRET-quenched peptide (Pro3) cleavage by PLpro, 10 min pre-incubation, slope over 20 min, normalised to no-compound control. The note with it: low concentration screen, read-out: % of control remaining.
The target of test [2] is T1, SARS-CoV-2 PLpro (nsp3 1564–1878). Briefly: biochemical. On the set-up: FRET-quenched peptide (Pro3) cleavage by PLpro, 10 min pre-incubation, slope over 20 min, normalised to no-compound control. To be noted: high concentration screen, read-out: % of control remaining.

`CO[C@H]1/C=C/O[C@@]2(C)Oc3c(C)c(O)c4c(O)c(cc(O)c4c3C2=O)NC(=O)/C(C)=C\C=C\[C@H](C)[C@H](O)[C@@H](C)[C@@H](O)[C@@H](C)[C@H](OC(C)=O)[C@@H]1C` [RIFAMYCIN SV]: the remaining activity at 1.25 µM in test [1] (Well no.=1987) was determined as 105%. In addition, in test [2] (Well no.=1987), the remaining activity at 3.75 µM was 97.9%.

Regarding `CCCC(=O)OCC[N+](C)(C)C` [Butyrylcholine], in test [1] (Well no.=1738), the remaining activity at 1.25 µM worked out at 103%. Further, in test [2] (Well no.=1738), the remaining activity at 3.75 µM was determined as 100%.

On to `CC1CNc2c(cccc2S(=O)(=O)N[C@@H](CCCNC(=N)N)C(=O)N2CC[C@@H](C)C[C@@H]2C(=O)O)C1` (stereo partly drawn) [(2R,4R)-1-((2S)-5-{[amino(imino)methyl]amino}-2-{[(3-methyl-1,2,3,4-tetrahydro-8-quinolinyl)sulfonyl]amino}pentanoyl)-4-methyl-2-piperidinecarboxylic acid hydrate], for which, in test [1] (Well no.=5613), the remaining activity at 1.25 µM was found to be 96%. Further, the remaining activity at 3.75 µM in test [2] (Well no.=5613) came out at 96.5%.

On to `O=C(CN1C(=O)C2(CCCC2)NC[C@H]1c1cc(F)cc(F)c1)Nc1ccc2c(c1)C[C@@]1(C2)C(=O)Nc2ncccc21` [MK-3207 (Hydrochloride)], for which, in test [1] (Well no.=6950), the remaining activity at 1.25 µM stood at 93.4%. Moreover, the remaining activity at 3.75 µM in test [2] (Well no.=6950) amounted to 93.6%.

`C[C@@H]1C[C@H]2O[C@@H]2/C=C\C=C\C(=O)Cc2c(Cl)c(O)cc(O)c2C(=O)O1` [Radicicol]: the remaining activity at 1.25 µM in test [1] (Well no.=3124) came out at 95.9%. The remaining activity at 3.75 µM in test [2] (Well no.=3124) amounted to 98.1%.

For the molecule `COc1cc([C@@H]2CC(=O)c3c(O)cc(O)cc3O2)ccc1O` [Homoeriodictyol], the remaining activity at 1.25 µM in test [1] (Well no.=3683) was determined as 98.7%. Besides, in test [2] (Well no.=3683), the remaining activity at 3.75 µM was 98.2%.

For `OCC(CO)N[C@H]1C[C@](O)(CO)[C@@H](O)[C@H](O)[C@H]1O` [Voglibose], the remaining activity at 1.25 µM in test [1] (Well no.=8298) came to 90.6%. The remaining activity at 3.75 µM in test [2] (Well no.=8298) amounted to 93.5%.

For `COc1ccc(C(=O)N2CCCC2=O)cc1` [Aniracetam], the remaining activity at 1.25 µM in test [1] (Well no.=156) is 102%; in test [1] (Well no.=1889) it was 95.1%. Further, the remaining activity at 3.75 µM was found to be 108% in test [2] (Well no.=156) and 95.2% in test [2] (Well no.=1889).

As to `CC(C)NCC(O)c1ccc(NS(C)(=O)=O)cc1` (stereo not drawn) [Sotalol (hydrochloride)], the remaining activity at 1.25 µM in test [1] (Well no.=6363) turned out to be 100%. The remaining activity at 3.75 µM in test [2] (Well no.=6363) was 98.6%.

With `C[N+]1(C)[C@@H]2CC[C@H]1C[C@@H](OC(=O)C(CO)c1ccccc1)C2` (stereo partly drawn) [Atropine methyl bromide], in test [1] (Well no.=117), the remaining activity at 1.25 µM was determined as 100%. Further, in test [2] (Well no.=117), the remaining activity at 3.75 µM came to 96.6%.

For the molecule `CN(C)c1nc2c(ncn2[C@@H]2O[C@H](CO)[C@@H](O)[C@H]2O)c(=O)[nH]1` [N2,N2-Dimethylguanosine], the figures for the remaining activity at 1.25 µM in test [1] (Well no.=6969) and in test [1] (Well no.=7820) were 105% and 104%, respectively. The results for the remaining activity at 3.75 µM in test [2] (Well no.=6969) and in test [2] (Well no.=7820) were 106% and 104%, respectively.

`CCn1cc(C(=O)O)c(=O)c2cc(F)c(N3CCNC(C)C3)c(F)c21` (stereo not drawn) [Lomefloxacin hydrochloride]: in test [1] (Well no.=929), the remaining activity at 1.25 µM turned out to be 98.7%. Besides, the remaining activity at 3.75 µM in test [2] (Well no.=929) worked out at 94.8%.

In the case of `COc1cccc(OC)c1OCCNCC1COc2ccccc2O1` (stereo not drawn) [WB-4101 hydrochloride], the remaining activity at 1.25 µM in test [1] (Well no.=443) came out at 96%. Also, the remaining activity at 3.75 µM in test [2] (Well no.=443) worked out at 99.1%.

In the case of `Cc1cc(Nc2nc(-c3ccccc3)nc3ccccc23)n[nH]1` [GSK-3 Inhibitor XIII], in test [1] (Well no.=2502), the remaining activity at 1.25 µM was 94.8%. Further, the remaining activity at 3.75 µM in test [2] (Well no.=2502) was 96.8%.

As for `C[C@H]1C[C@H]2[C@@H]3CCC4=CC(=O)C=C[C@]4(C)[C@@]3(Cl)[C@@H](O)C[C@]2(C)[C@@]1(O)C(=O)CO` [Beclomethasone], the remaining activity at 1.25 µM in test [1] (Well no.=356) stood at 95.3%. In addition, in test [2] (Well no.=356), the remaining activity at 3.75 µM was found to be 100%.

For `COc1c(O)c2c(=O)cc(OC)c3c4c(OC)cc(=O)c5c(O)c(OC)c6c(c(c1CC(C)=C6C(C)=O)c23)c54` [Hypocrellin B], the remaining activity at 1.25 µM in test [1] (Well no.=3691) amounted to 100%. Also, the remaining activity at 3.75 µM in test [2] (Well no.=3691) was determined as 103%.

In the case of `CC(ONC(=O)c1cc(C(F)(F)F)cc(C(F)(F)F)c1)C(=O)Nc1ccc(Cl)cc1` (stereo not drawn) [N-[2-(4-chloroanilino)-1-methyl-2-oxoethoxy]-3,5-bis(trifluoromethyl)benzamide], the remaining activity at 1.25 µM in test [1] (Well no.=5698) is 101%. The remaining activity at 3.75 µM in test [2] (Well no.=5698) amounted to 103%.

For `CCCN(CCC)[C@H]1CCc2c(F)ccc(O)c2C1` [S(-)-UH-301 hydrochloride], in test [1] (Well no.=1334), the remaining activity at 1.25 µM stood at 97.2%. Besides, in test [2] (Well no.=1334), the remaining activity at 3.75 µM came out at 95.3%.

For `NCCCNCCSP(=O)(O)O` [Amifostine], the remaining activity at 1.25 µM in test [1] (Well no.=115) was 103%; in test [1] (Well no.=2115) it was 99.3%. In addition, the values for the remaining activity at 3.75 µM in test [2] (Well no.=115) and in test [2] (Well no.=2115) were 104% and 102%, respectively.

As to `Cc1ccc(-n2nc(C(C)(C)C)cc2NC(=O)Nc2ccc(OCCN3CCOCC3)c3ccccc23)cc1` [BIRB 796 (Doramapimod)], in test [1] (Well no.=5264), the remaining activity at 1.25 µM is 89.3%. Further, the remaining activity at 3.75 µM in test [2] (Well no.=5264) is 89.7%.

Turning to `N#C/C(=C\c1ccc(O)c(O)c1)C(=O)NCc1ccccc1` [AG 490], in test [1] (Well no.=2607), the remaining activity at 1.25 µM turned out to be 95.5%. In addition, in test [2] (Well no.=2607), the remaining activity at 3.75 µM worked out at 97%.

As for `NC(=O)c1cnccn1` [Pyrazinecarboxamide], in test [1] (Well no.=1395), the remaining activity at 1.25 µM worked out at 101%. For the same molecule, the remaining activity at 3.75 µM in test [2] (Well no.=1395) came out at 99.2%.

On to `NNC(=O)c1ccc(O)cc1` [4-Hydroxybenzhydrazide], for which the remaining activity at 1.25 µM in test [1] (Well no.=426) came out at 97.3%. For the same molecule, the remaining activity at 3.75 µM in test [2] (Well no.=426) came out at 97%.

For `CN1[C@@H]2CC(O)C[C@H]1[C@@H]1O[C@@H]12` (stereo partly drawn) [Scopine], the remaining activity at 1.25 µM in test [1] (Well no.=4910) worked out at 95.8%. The remaining activity at 3.75 µM in test [2] (Well no.=4910) was 92.3%.

Regarding `N/C(=N\C(=O)c1nc(Cl)c(N)nc1N)NCc1ccccc1` [Benzamil hydrochloride], the remaining activity at 1.25 µM in test [1] (Well no.=267) worked out at 95.3%. Moreover, the remaining activity at 3.75 µM in test [2] (Well no.=267) was 92.2%.

In the case of `CCC(=O)N1CCN(C(=O)c2ccccc2)CC1` [DM 235], the remaining activity at 1.25 µM in test [1] (Well no.=453) stood at 96.3%. Also, the remaining activity at 3.75 µM in test [2] (Well no.=453) was determined as 96%.

With `O=C(O)CCC(=O)O` [Succinic acid], the remaining activity at 1.25 µM in test [1] (Well no.=7353) came out at 106%. Besides, the remaining activity at 3.75 µM in test [2] (Well no.=7353) came to 106%.

`COc1ccc2c(c1OC)C(=O)O[C@H]2[C@@H]1c2cc3c(cc2CCN1C)OCO3` [(+)-Hydrastine]: the remaining activity at 1.25 µM in test [1] (Well no.=614) amounted to 96.4%. For the same molecule, the remaining activity at 3.75 µM in test [2] (Well no.=614) amounted to 97.7%.

`COc1ccc(Cc2nccc3cc(OC)c(OC)cc23)cc1OC` [Papaverine hydrochloride]: the remaining activity at 1.25 µM in test [1] (Well no.=1144) was determined as 98.1%. Further, the remaining activity at 3.75 µM in test [2] (Well no.=1144) came to 98.9%.

`[N-]=[N+]=Nc1ccc(C(=O)CSC[C@H](NC(=O)CC[C@H](N)C(=O)O)C(=O)NCC(=O)O)cc1` [S-(p-Azidophenacyl)glutathione]: the remaining activity at 1.25 µM in test [1] (Well no.=105) amounted to 107%. Further, the remaining activity at 3.75 µM in test [2] (Well no.=105) stood at 110%.
